Reference: patent publication US20020132281A1, “Secretases related to alzheimer's dementia” (priority 1998, published 2002)
Entries after “also recorded” stand apart in the source; their conditions may differ. Square brackets hold non-standard residues; d marks the D form. Peptide text beside a SMILES is read from it. * marks the point of attachment. Sta = CC(C)C[C@H](N)[C@@H](O)CC(=O)O; Isovaleryl = CC(C)CC(=O)*

How the values were obtained:
[1] = test system: β-secretase endoprotease activity in chromaffin vesicles; test: Effect of reducing agent DTT on β-secretase endoprotease activity in chromaffin vesicle lysate; type: biochemical, bovine; conditions: 1 mM DTT vs absence of DTT; lysed vesicles
Method: The β-secretase endoprotease activity was identified by incubating the chromaffin vesicle lysate (2-10 μl of 10-20 mg protein/ml) with the Z*Val-Lys-Met-MCA substrate (100 μM final concentration) and detecting AMC fluorescence. The chromaffin vesicle lysate was prepared as described in Example I. The endoprotease activity was determined as a function of pH by varying the pH of the incubation solution between 3.0 to 8.0 in 0.5 pH increments. Citric acid, sodium phosphate, and Tris-HCl buffers (100 mM final concentration) were used to adjust the pH of the incubation solutions between 3.0 to 5.5, 6.0 to 7.5, and 8.0, respectively. […]
As discussed above, endoprotease cleavage between the Met-MCA bond in the Z*Val-Lys-Met-MCA substrate produces fluorescent AMC, but endoprotease cleavage between the Lys-Met or Val-Lys bonds in that substrate produces non-fluorescent Lys-Met-MCA and Met-MCA peptides. To insure that the latter two endoprotease cleavages were detected, aminopeptidase M (20 μg/ml final concentration, BOEHRINGER […]) was added to each incubation solutions to produce fluorescent AMC from the Lys-Met-MCA and Met-MCA peptides. […]
The effect of the reducing agent dithiothreitol (DTT) on β-secretase endoprotease activity was determined using the assay described in Example III. […]

[2] = test system: β-secretase endoprotease activity; test: β-secretase endoprotease activity with/without DTT in fractions obtained during isolation of chromaffin vesicles; type: biochemical, bovine; conditions: pH 5.5
Method: The effect of the reducing agent dithiothreitol (DTT) on β-secretase endoprotease activity was determined using the assay described in Example III. Briefly, the lysed vesicles were incubated with the substrate Z*Val-Lys-Met-MCA in the presence or absence of 1 mM DTT and the resulting fluorescence plotted as a function of pH. Both with and without DTT, β-secretase endoprotease activity was detected and in both cases that activity had pH optimum of about 4.0 to 6.0, which is consistent with the intravesicular pH of chromaffin vesicles.
The β-secretase endoprotease activity of fractions obtained during the isolation procedure described in Example I was determined at the pH optimum of 5.5, with and without DTT using the assay described in Example VII.

[3] = test system: Peak II β-secretase endoprotease activity; test: Protease inhibitors of β-secretase endoprotease activity in Peak II; type: biochemical, bovine; conditions: for Peak II (%) of control: control (no inhibitor) = 100
Method: (§1) The protease inhibitor was added to each assay at the start of the reaction at the appropriate concentration. The extent of inhibition was expressed as a percentage of the activity without the inhibitor (control).
(§2) The contents of the eluted Con-A bound fraction were fractioned according to molecular size using a Sephacryl S200 column (Krieger, T. K. and Hook, V. Y. H. ibid.) .

[4] = test system: Peak I β-secretase endoprotease activity; test: Protease inhibitors of β-secretase endoprotease activity in Peak I; type: biochemical, bovine; conditions: for Peak I (%) of control: control (no inhibitor) = 100
Method: as §1, §2

[5] = test system: β-secretase endoprotease activity in chromaffin vesicle lysate; test: Protease inhibitors of β-secretase endoprotease activity in chromaffin vesicle lysate (Z*Val-Lys-Met-MCA cleavage, with aminopeptidase M); type: biochemical, bovine; conditions: for inhibition of β-secretase endoprotease activity in the lysate, in words: chromaffin vesicle lysate; for % CONTROL (β-secretase endoprotease activity): pH 5.5, with aminopeptidase M, activity as % of no-inhibitor control
Method: The β-secretase endoprotease activity was identified by incubating the chromaffin vesicle lysate (2-10 μl of 10-20 mg protein/ml) with the Z*Val-Lys-Met-MCA substrate (100 μM final concentration) and detecting AMC fluorescence. The chromaffin vesicle lysate was prepared as described in Example I. The endoprotease activity was determined as a function of pH by varying the pH of the incubation solution between 3.0 to 8.0 in 0.5 pH increments. Citric acid, sodium phosphate, and Tris-HCl buffers (100 mM final concentration) were used to adjust the pH of the incubation solutions between 3.0 to 5.5, 6.0 to 7.5, and 8.0, respectively. Duplicate samples at each pH increment (100 μl each) were distributed among 22 wells in a covered microtiter well plate and incubated at 37° C. for 8 hours in a water bath.
As discussed above, endoprotease cleavage between the Met-MCA bond in the Z*Val-Lys-Met-MCA substrate produces fluorescent AMC, but endoprotease cleavage between the Lys-Met or Val-Lys bonds in that substrate produces non-fluorescent Lys-Met-MCA and Met-MCA peptides. To insure that the latter two endoprotease cleavages were detected, aminopeptidase M (20 μg/ml final concentration, BOEHRINGER […]) was added to each incubation solutions to produce fluorescent AMC from the Lys-Met-MCA and Met-MCA peptides. Prior to adding the aminopeptidase M, each incubation solution was adjusted to a pH 8.3 using Tris-HCl because aminopeptidase M functions at a basic pH. A second incubation at 37° C. for 1 hour in the water bath was conducted to complete the aminopeptidase M reaction.
Upon termination of that second incubation, AMC fluorescence was assayed using a fluorometer (IDEXX fluorometer, FCA Fluorescence Concentration Analyzer, cat. no. 10-105-2, BAXTER HEALTH CARE CORP., Mundelein, Ill.) at excitation and emission wavelengths of 365 and 450 nm, respectively. Standard AMC concentrations were also measured to quantitate relative fluorescence with the molar amount (pmol) of AMC generated by the secretase. The resulting AMC fluorescence reflects the endoprotease activity in cleaving either the Met-MCA, Lys-Met. and Val-Lys bonds in the Z*Val-Lys-Met-MCA substrate.
The effect of the aminopeptidase M and the basic pH buffer used in the β-secretase endoprotease activity assay was determined. The assay was conducted as described in Example VIII with DTT. Three assays were conducted, one with aminopeptidase M in its basic pH buffer, another with the basic pH buffer but not aminopeptidase M, and a third without either the buffer or the aminopeptidase M. Briefly, the chromaffin vesicle lysate and the substrate Z*Val-Lys-Met-MCA were incubated for 30 minutes at a specified pH and the resulting fluorescence measured. The aminopeptidase M in the basic pH buffer or that buffer alone (final concentration of 75 mM Tris-HCl pH 8.2) was added to the assay and incubated an additional 60 minutes at 37° C. […] The assay conducted with aminopeptidase M and its basic pH buffer and that of the control assay having just the basic pH buffer produced approximately the same amount of fluorescence.
The effect of various protease inhibitors on β-secretase endoprotease activity in the lysate was determined at the pH optimum 5.5 in the assay described in Example IX containing aminopeptidase M. Protease inhibitors specific for various protease classes were used. The protease inhibitor was added to each assay at the start of the reaction at the appropriate concentration. The extent of inhibition was expressed as a percentage of the activity without the inhibitor (control). Triplicate assays varied by less than 10%.

chromaffin cells = test: Aβ-peptide secretion by primary chromaffin cell cultures (RIA of Aβ1-40 in media); type: cell-based, bovine; conditions: 15 minutes
Method: Primary chromaffin cell cultures containing approximately 2 million cells in each culture were produced using established methods (Hook et al., ibid.; and Tezapsidis et al., ibid.). Exocytosis of the contents of the vesicles in such cells was induced by exposing the cells to KCl (50 mM) or nicotine (10 μM) for 15 minutes.

In the case of `O[C@H](CS)[C@H](O)CS` (racemic) [DTT, dithiothreitol], the “increase in the β-secretase endoprotease activity” value [1] was “approximately 5 fold”, the “RATIO of activities (with/without DTT)” value ([2]; Adrenal Medulla Homgenate) was 4.7 and the “RATIO of activities (with/without DTT)” value ([2]; Pellet from 1st 8,800 rpm Centrifugation (crude vesicle fraction)) was 3.2. The “RATIO of activities (with/without DTT)” value ([2]; Pellet from 2nd 8,800 rpm Centrifugation (washed vesicle fraction)) was 6.3, the “RATIO of activities (with/without DTT)” value ([2]; Pellet from 1,500 rpm Centrifugation (nuclear fraction)) was 11.6 and the “RATIO of activities (with/without DTT)” value ([2]; Pellet from 25,000 rpm Discontinuous Gradient Centrifugation (vesicle fraction)) was 11.0.

With `c1cnc2c(c1)ccc1cccnc12` [1,10 Phenanthroline] the “inhibition of Peak II activity, in words” value [3] was “only slightly inhibited”, the “Peak II (%) of control” value ([3]; inhibitor 500 μM) was 72% and the “inhibition of Peak I activity, in words” value [4] was “significantly inhibited”. For the same compound, the “Peak I (%) of control” value ([4]; inhibitor 500 μM) was 31%.

With `CC(C)C[C@H](NC(=O)[C@@H](NC(=O)N[C@@H](Cc1ccccc1)C(=O)O)[C@@H]1CCN=C(N)N1)C(=O)N[C@H](C=O)Cc1ccccc1` [Chymostatin] the “inhibition of β-secretase endoprotease activity in the lysate, in words” value (from here on “inhibition … in the lysate, in words”) [5] was “greatly inhibited”, the “% CONTROL (β-secretase endoprotease activity)” value (shortened to “% CONTROL”) ([5]; inhibitor 10 μM) was 11% and the “inhibition of Peak II activity, in words” value [3] was “maximally inhibited; also recorded: inhibited less than that of the lysate”. The “Peak II (%) of control” value ([3]; inhibitor 10 μM) was 35%, the “inhibition of Peak I activity, in words” value [4] was “maximally inhibited; also recorded: inhibited less than that of the lysate” and the “Peak I (%) of control” value ([4]; inhibitor 10 μM) was 0%.

With `CC(C)CCNC(=O)[C@H](CC(C)C)NC(=O)[C@H]1O[C@@H]1C(=O)O` [E64c] the “inhibition … in the lysate, in words” value [5] was “completely inhibited”, the “% CONTROL” value ([5]; inhibitor 10 μM) was 0% and the “inhibition of Peak II activity, in words” value [3] was “maximally inhibited; also recorded: completely inhibited”. For the same compound, the “Peak II (%) of control” value ([3]; inhibitor 10 μM) was 0%, the “inhibition of Peak I activity, in words” value [4] was “maximally inhibited; also recorded: completely inhibited” and the “Peak I (%) of control” value ([4]; inhibitor 10 μM) was 0%.

For `O=C(O)CN(CCN(CC(=O)O)CC(=O)O)CC(=O)O` [EDTA, ethylenediaminetetraacetic acid], the “% CONTROL” value ([5]; inhibitor 1 mM) was 100%, the “Peak II (%) of control” value ([3]; inhibitor 1 mM) was 138% and the “Peak I (%) of control” value ([4]; inhibitor 1 mM) was 99%.

In the case of `O=C(O)CN(CCOCCOCCN(CC(=O)O)CC(=O)O)CC(=O)O` [EGTA], the “% CONTROL” value ([5]; inhibitor 1 mM) was 99%, the “Peak II (%) of control” value ([3]; inhibitor 1 mM) was 142% and the “Peak I (%) of control” value ([4]; inhibitor 1 mM) was 108%.

In the case of `[Cl-].[K+]` [KCl, potassium chloride], the “increase in the concentration of Aβ1-40 peptide in the media relative to control media” value (chromaffin cells; KCl 50 mM) was “approximately 350 fold”.

For `CC(=O)N[C@@H](CC(C)C)C(=O)N[C@@H](CC(C)C)C(=O)N[C@H](C=O)CCCNC(=N)N` [Leupeptin], the “inhibition … in the lysate, in words” value [5] was “completely inhibited”, the “% CONTROL” value ([5]; inhibitor 100 μM) was 0% and the “inhibition of Peak II activity, in words” value [3] was “maximally inhibited; also recorded: completely inhibited”. The “Peak II (%) of control” value ([3]; inhibitor 100 μM) was 0%, the “inhibition of Peak I activity, in words” value [4] was “maximally inhibited; also recorded: completely inhibited” and the “Peak I (%) of control” value ([4]; inhibitor 100 μM) was 0%.

In the case of `O=S(=O)(F)Cc1ccccc1` [PMSF, phenylmethylsulfonyl fluoride], the “inhibition … in the lysate, in words” value [5] was “significantly inhibited” and the “% CONTROL” value ([5]; inhibitor 100 μM) was 58%.

For `CC(C)CC(=O)N[C@H](C(=O)N[C@H](C(=O)N[C@@H](CC(C)C)[C@@H](O)CC(=O)N[C@@H](C)C(=O)N[C@@H](CC(C)C)[C@@H](O)CC(=O)O)C(C)C)C(C)C` [Pepstatin A] (Isovaleryl-VV[Sta]A[Sta]-OH), the “inhibition … in the lysate, in words” value [5] was “slightly inhibited”, the “% CONTROL” value ([5]; inhibitor 10 μM) was 78% and the “inhibition of Peak II activity, in words” value [3] was “did not significantly inhibit; also recorded: increased the activity”. For the same compound, the “Peak II (%) of control” value ([3]; inhibitor 100 μM) was 132%, the “inhibition of Peak I activity, in words” value [4] was “did not significantly inhibit; also recorded: slightly inhibited” and the “Peak I (%) of control” value ([4]; inhibitor 100 μM) was 85%.

`CN1CCCC1c1cccnc1` (centres unmarked) [nicotine] was tested, and the “increase in the concentration of Aβ1-40 peptide in the media relative to control media” value (chromaffin cells; nicotine 10 μM) was ~550 fold.

In the case of `O=C(O)c1cc[c]([Hg][OH])cc1` [pHMB], the “inhibition … in the lysate, in words” value [5] was “greatly inhibited”, the “% CONTROL” value ([5]; inhibitor 1 mM) was 35% and the “inhibition of Peak II activity, in words” value [3] was “slightly inhibited; also recorded: inhibited less than that of the lysate”. For the same compound, the “Peak II (%) of control” value ([3]; inhibitor 1 mM) was 68%, the “inhibition of Peak I activity, in words” value [4] was “slightly inhibited; also recorded: inhibited less than that of the lysate” and the “Peak I (%) of control” value ([4]; inhibitor 1 mM) was 67%.
